Results published in patent US10472346B2, “Potent gamma-secretase modulators” (The General Hospital Coporation, priority 2014, dated 2019).

Columns and labels:
[1] = system: Aβ42 levels; experiment: Effects of 9 days treatment on rat plasma and CSF Aβ42 levels; assay type: in vivo, male Sprague-Dawley rat; settings: for reduction in CSF Aβ42 levels: rat CSF; for reduction in plasma Aβ42 levels: rat plasma
Protocol: FIG. 5: The effects of Compound 1 after 9-days treatment on Aβ42 levels in male Sprague-Dawley rat plasma A) where the reduction in plasma levels was 81%, 93% and 97%, for dosages of 5, 25, and 50 mg/kg, respectively and male Sprague-Dawley rat CSF B) where the reduction in CSF levels was 43%, 73% and 86%, for dosages of 5, 25, and 50 mg/kg, respectively.
Effects of Compound 1 (9 Days Treatment) on Rat Plasma and CSF Aβ42 Levels. The effects of Compound 1 after 9-days treatment on Aβ42 levels in rat plasma and CSF are depicted in FIG. 5A (plasma) and FIG. 5B (CSF). For FIG. 5A, the reduction in plasma levels was 81%, 93% and 97%, for dosages of 5, 25, and 50 mg/kg, respectively. For FIG. 5B, the reduction in CSF levels was 43%, 73% and 86%, for dosages of 5, 25, and 50 mg/kg, respectively.

[2] = system: APP-CTF (C-terminal fragment); experiment: Accumulation of APP-CTFs in brain extracts (immunoblot, anti-APP carboxyl-terminal antibody); assay type: in vivo; settings: administered doses of 5, 25 or 50 mg/kg
Protocol: FIG. 7: Protein blots of indicated proteins from subjects administered vehicle and Compound 1 at doses of 5, 25 and 50 mg/kg.
Brain extracts which were prepared using 1.0% SDS run on SDS-PAGE, transferred to PVDF membranes and immunoblots were performed using an anti-APP carboxyl-terminal antibody.

## COc1nc(-c2cc(C)c(N[C@@H](C)c3ccc(F)cc3)nn2)ccc1-n1cnc(C)c1 [Compound 1, (S)—N-(1-(4-fluorophenyl)ethyl)-6-(6-methoxy-5-(4-methyl-1H-imidazol-1-yl)pyridin-2-yl)-4-methylpyridazin-3-amine]
[1]; 5 mg/kg
  reduction in CSF Aβ42 levels: 43%
  reduction in plasma Aβ42 levels: 81%
[1]; 25 mg/kg
  reduction in CSF Aβ42 levels: 73%
  reduction in plasma Aβ42 levels: 93%
[1]; 50 mg/kg
  reduction in CSF Aβ42 levels: 86%
  reduction in plasma Aβ42 levels: 97%
[2]
  accumulation of APP-CTF (C-terminal fragment): does not cause accumulation of APP-CTF
